According to article PMC10726441, “Discovery of Tumor-Targeted 6-Methyl Substituted Pemetrexed and Related Antifolates with Selective Loss of RFC Transport” (ACS Medicinal Chemistry Letters, 2023):
Entries after “also recorded” stand apart in the source; their conditions may differ.

Test system: KB tumor cells; thymidylate and de novo purine nucleotide biosynthesis
Test: Metabolite protection experiments in KB cells (thymidine, adenosine, glycine, AICA)
Assay type: cell-based, human
Details: for targeted pathway from metabolite protection (in words): thymidine 10 μM, adenosine 60 μM, glycine 130 μM, AICA 320 μM
Experimental: To identify the targeted pathways/enzymes of these pyrrolo[2,3-d]pyrimidine compounds (1, 2, 4–8), in vitro growth inhibition assays were performed with KB tumor cells in glycine-, adenosine-, and thymidine-free media without additions or in the presence of thymidine (10 μM), adenosine (60 μM), or glycine (130 μM) (both singly and in various combinations; Figure 4).[18],[23]−[25],[28]−[31],[42],[44],[45] For de novo purine biosynthesis inhibitors, protection was also tested with AICA (320 μM), which is metabolized to AICA ribonucleotide (substrate for the AICARFTase reaction, thus circumventing GARFTase).
Figure 4 Metabolite protection experiments. […] Cell densities were measured with a fluorescence assay[25] and a fluorescence plate reader. Results were normalized to cell densities in the absence of drug. Results shown are mean values plus/minus standard errors from triplicate experiments. Experimental details are described in the Supporting Information, and the methods have been previously published.[18],[23]−[25],[28]−[31],[42],[44]
(Vancouver, B.C). IGROV1, KB and IOSE 7576 cells were cultured in complete FF-RPMI with 10% fetal bovine serum and 100 units/mL penicillin/100 μg/mL streptomycin, and 2 mM L-glutamine. Cell lines were tested for Mycoplasma by PCR using a Mycloplasma testing kit (Venor™ GeM Mycoplasma Detection Kit, Sigma). Frozen stocks were generated from authenticated Mycoplasma-free cultures.
For cell proliferation assays, CHO, KB, NCI-IGROV1 and IOSE 7576 cells were plated in 96-well dishes at densities ranging from 2500-5000 cells/well in 200 μL media and treated with a range of inhibitors spanning 0-1000 nM. Experiments with RT16, D4, IGROV1, IOSE 7576 and KB cells used folate-free RPMI 1640 (FF RPMI) media with 10% dialyzed fetal bovine serum and 100 units/mL penicillin/100 μg/mL streptomycin, supplemented with 2 nM leucovorin and 2 mM L-glutamine. FR-mediated drug uptake was assessed in parallel incubations including 200 nM folic acid. For R2/PCFT4, PC43-10 and R2 CHO cells, the medium was FF-RPMI supplemented with 10% dialyzed fetal bovine serum, 100 units/mL penicillin/100 μg/mL streptomycin, 25 nM leucovorin and 2 mM L-glutamine.
Cells were treated over a 96 h period at 37° C with 5% CO2 and relative cell numbers quantified using the CellTiter-blue cell viability assay (Promega, Madison, WI) and a fluorescence plate reader. Raw data were exported to Excel for analysis and the results were plotted using Graphpad Prism 6.0. Determinations of IC50s were made […]
assays have been previously described.7, 8, 11, 12, 15-20 […]

| Structure (SMILES) | targeted pathway from metabolite protection (in words) | protection by glycine / mitochondrial C1 metabolism (in words) (glycine 130 μM added to adenosine and thymidine) |
| --- | --- | --- |
| Nc1nc2[nH]cc(CCc3ccc(C(=O)N[C@@H](CCC(=O)O)C(=O)O)cc3)c2c(=O)[nH]1 [Compound 1, reference compound] | inhibited both thymidylate and purine nucleotide biosynthesis |  |
| Nc1nc2[nH]cc(CCCc3ccc(C(=O)N[C@@H](CCC(=O)O)C(=O)O)cc3)c2c(=O)[nH]1 [Compound 2] | inhibited both thymidylate and purine nucleotide biosynthesis | addition of glycine provided greater protection than did adenosine and thymidine alone; also recorded: inhibition of mitochondrial C1 metabolism was also suggested |
| Nc1nc2[nH]cc(CCc3ccc(C(=O)N[C@@H](CCC(=O)O)C(=O)O)c(F)c3)c2c(=O)[nH]1 [Compound 4] | inhibited both thymidylate and purine nucleotide biosynthesis |  |
